Results published in the METLIN SMRT retention time set (Domingo-Almenara et al. 2019).

Assay: gradient 5% acetonitrile 3 min, to 50% in 2 min, to 85% in 15 min, held 3 min, 100 µL/min
Settings: column: Zorbax Extend-C18 2.1 x 50 mm; eluents: water / acetonitrile, 0.1% formic acid
Summary of the method: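 Values are retention times taken from adduct peaks that software picked and an analyst inspected. The pure standards were run as mixtures of ~100 molecules on HPLC linked to a quadrupole time-of-flight mass spectrometer, in positive and negative ionization mode. A Zorbax Extend-C18 column (2.1 × 50 mm, 1.8 μm) was used at 100 μL/min with water and acetonitrile, each including 0.1% formic acid.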

RP-LC retention time	SMILES
672 s	O=C(Cn1cnc2nc(N3CCCC(C(=O)NC4CC4)C3)sc2c1=O)Nc1ccc(F)cc1 (stereo not given)
730 s	COc1ccc(CC(=O)Nc2nc3ccc(S(=O)(=O)NC(C)C)cc3s2)cc1OC
788 s	CCN1c2ccc(C)cc2C(=O)NC12CCN(C(=O)c1ccc3c(c1)OCO3)CC2
583 s	c1ccc2c(c1)CCN(Cc1nc(-c3ccc(N4CCCC4)nc3)no1)C2
907 s	CSc1ccc(NC(=O)C2c3ccccc3Oc3ccccc32)nn1
742 s	Cc1ccc(C)c(NC(=O)Cn2ccc3sccc3c2=O)c1
816 s	COc1cccc(-c2nc(Cn3c(C)nc4ccccc4c3=O)no2)c1OC
982 s	Cc1ccccc1CNC(=O)c1cn(-c2cc(-c3nc(C4CC4)no3)ccn2)cn1
664 s	Cc1ccc([N+](=O)[O-])cc1S(=O)(=O)Nc1ccc(-c2cn3ccccc3n2)cc1
669 s	COCCNC(=O)N1CCCN(C2=NS(=O)(=O)C(c3ccc(F)cc3)=C2C)CC1
688 s	Cc1ccc(C)c(NC(=O)Cn2c(N3CCCCC3)nc(C)cc2=O)c1
622 s	COCC(=O)NC/C=C/c1ccc2ncnc(Nc3ccc(Oc4ccc(C)nc4)c(C)c3)c2c1
599 s	CN1C(=O)CS(=O)C12CCN(C(=O)Nc1ccccc1)CC2 (stereo not given)
817 s	CC1CCCN(c2ccc(-c3csc(S(=O)(=O)N4CCCCC4)c3)nn2)C1 (stereo not given)
927 s	COc1ccc(Cc2nc(-c3ccc4c(c3)nc(C)c(=O)n4C)no2)cc1
988 s	COc1ccc(Cl)cc1C(=O)CN1C(=O)COc2ccccc2C1=O
634 s	COc1ccc(S(=O)(=O)Nc2cccc(-c3cn4cccc(C)c4n3)c2)cc1OC
596 s	CNC(=O)c1cc(=O)[nH]c2c(Cl)cccc12
789 s	O=C(NCCCc1ccccc1)c1n[nH]c2c1CN(C(=O)C1CC1)CC2

RP-LC retention time	SMILES
1080 s	CCOc1cccc(-c2noc(Cc3nnc(-c4cccc(OC)c4)o3)n2)c1
592 s	CC(=O)N(Cc1nn(C)c2c1CN(Cc1cccc(O)c1)CC2)c1ccccc1
843 s	Cc1nnc2ccc(-c3noc(-c4cccc5[nH]ccc45)n3)cn12
668 s	CC1Cc2cc(S(=O)(=O)N3CCN(c4ccccn4)CC3)ccc2N1C(=O)C1CC1 (stereo not given)
680 s	COCCSc1nnc(NC(=O)C2CCN(C(=O)c3ccccc3F)CC2)s1
642 s	CCOc1ccc(NC(=O)N2CCC(n3cnc4cccnc43)CC2)cc1
650 s	CCc1nc(N)n(CC(=O)Nc2ccc(OC)cc2)c(=O)c1C
654 s	O=C(Nc1nc2c(s1)CN(Cc1ccccc1)CC2)C1CCCN1S(=O)(=O)c1cccs1 (stereo not given)
794 s	Cc1noc(-c2ccc(=O)n(Cc3ccccc3F)n2)n1
1120 s	CCOc1ccc(CC(=O)N2CCCC2c2nc(-c3cccc(C)c3)no2)cc1 (stereo not given)
662 s	CCNC(=O)C1CCN(c2nc3ncn(CC(=O)Nc4ccc(OCC)cc4)c(=O)c3s2)CC1
654 s	COc1ccc(-c2nnc(-c3ccc(-n4ccnc4)nc3)o2)cc1
1120 s	Cc1ccccc1Cn1nc(-c2nc(C(C)(C)C)no2)ccc1=O
832 s	Cc1noc(-c2ccc(NC(=O)COc3ccccc3F)cc2)n1
914 s	CCOCCCNC(=O)N1CCN(c2nc3ccccc3n(Cc3ccccc3)c2=O)CC1
820 s	COc1ccc(NC(=O)C2CC(=O)N(CCc3c[nH]c4ccc(Cl)cc34)C2)c(OC)c1 (stereo not given)
773 s	Cc1ccc2c(c1)C(C)(C)C(=O)N2CC(=O)N1CCN(c2ncccn2)CC1
661 s	CC(C)CC(=O)NCCc1nc2cccnc2n1-c1ccccc1

The next lines start with the compound.

SMILES	RP-LC retention time
Cc1ccc(CN2CCCn3nc(C(=O)NCCc4c[nH]c5ccc(Cl)cc45)cc3C2=O)cc1	953 s
CCN1CCN(C(=O)C2CCN(S(=O)(=O)c3ccc4c(c3)sc(=O)n4C(C)C)CC2)CC1	650 s
COc1ccc(OC)c(CNC(=O)c2c(O)c3cccnc3[nH]c2=O)c1	921 s
O=C(Nc1ccc(OCC(=O)N2CCN(c3ncccn3)CC2)nc1)C1CC1	624 s
Cc1sc2ccn(C)c(=O)c2c1C(=O)N1CCC2(CC1)OCCO2	626 s
O=C(Cc1cccc(F)c1)Nc1nnc(SCc2nnc(-c3ccccc3)o2)s1	873 s
COc1ccccc1-n1ncc2c(C(C)C)nnc(SCC(=O)NCc3ccco3)c21	729 s
COc1ccc(NC(=O)Cn2c(=O)n(-c3ccc(C)cc3)c3ncccc32)c(C)c1	833 s
CCc1nnc2cc(N3CCN(Cc4ccc(C(C)C)cc4)CC3)cnn12	608 s
CCCN(CC1CC1)C(=O)[C@@H]1[C@H](c2cc(OC)c(OC)c(OC)c2)c2cc3c(cc2[C@H](O)[C@H]1CO)OCO3	740 s
O=C(NC1CC1)[C@@H]1C[C@H](Oc2ccccc2)CN1C(=O)C1CC1	684 s
COCC(=O)N(CC(=O)N1CCc2sccc2C1COc1ccc(Cl)c(C)c1)C(C)C (stereo not given)	967 s
Cc1ccnc(NC(=O)C2CCN(S(=O)(=O)c3ccc4c(c3)sc(=O)n4C)CC2)c1	645 s
COc1ccc(-c2nnc(N3CCC(C(=O)NCCC(C)C)CC3)o2)cc1	838 s
COc1ccc(NC(=O)C2CCCN2S(=O)(=O)c2cc3c(cc2C)NC(=O)CO3)cc1Cl (stereo not given)	775 s
Cc1ccc(S(=O)(=O)CCc2noc(-c3cccc4[nH]ccc34)n2)cc1	887 s
CCn1cccc1-c1nc(-c2ccncc2)no1	833 s
CC(O)(CNC(=O)c1cnc2ccccc2n1)c1ccccc1 (stereo not given)	734 s
Cc1nc(-c2csc(S(=O)(=O)N3CCC(C(=O)N4CCc5ccccc5C4)CC3)c2)no1	1050 s
O=C(OCCN1CCOCC1)C1(c2ccccc2)CCCCC1	755 s
COc1ccc(N2C(=O)CC(N3CCC(C(N)=O)CC3)C2=O)c(OC)c1 (stereo not given)	578 s
O=C(CCn1cnc2cc(-c3noc(Cc4cccc(F)c4)n3)ccc21)N1CCCC1	726 s
Cc1oc(C2CCN(C(=O)Nc3ccc(F)cc3F)CC2)nc1C(=O)N1CCOCC1	680 s
CC(C)Cn1c(=O)c2cc(C(=O)NC(C)c3cccs3)nn2c2ccccc21 (stereo not given)	1050 s
O=c1n(CC2CC2)nc2n1CCC(NS(=O)(=O)c1cccc(F)c1)CC2 (stereo not given)	717 s
CCC(C)NC(=O)C1CC(=O)N(c2ccc3c(c2)CCN3C(C)=O)C1 (stereo not given)	630 s
COc1ccc(NC(=O)Nc2ccc(C)n(CC(=O)O)c2=O)cc1	668 s
COc1ccc(CC(=O)Nc2c(C(=O)N3CCN(c4ccccn4)CC3)oc3ccccc23)cc1	675 s
